{"source": "patent US9889146B2", "about": "“Benzoxaborole compounds and uses thereof” (priority 2012, dated 2018)", "format_in_all_cases": "cell-based", "key": {"Klebsiella spp. (ESBL)": {"test_system": "Klebsiella spp. (ESBL)", "assay": "microbe, parasite or virus in culture", "settings": "Klebsiella"}, "S. marcescens (AmpC)": {"test_system": "S. marcescens (AmpC)", "assay": "microbe, parasite or virus in culture", "settings": "Serratia marcescens"}, "[1]": {"test_system": "E. coli clinical isolates from subject E. coli 1", "assay": "GSK2251052 MIC of clinical isolates, subject E. coli 1", "settings": "Escherichia coli, read-out: GSK2251052 MIC GSK results", "protocol": "The E. coli and P. mirabilis strains were cultured on Trypticase Soy Agar/5% blood plates (Becton Dickinson BBL), in cation adjusted Mueller-Hinton II Broth, or in M9 minimal salts (Becton Dickinson) broth containing 0.4% glucose and 200 uM MgSO4. L-Norvaline (Sigma-Aldrich) was prepared at a concentration of 6.4 mg/ml in […], in a final volume of approx 0.5 ml, and stored at −20° C. until required.\nMinimum inhibitory concentrations (MICs) were determined using the CLSI (Clinical and Laboratory Standards Institute, formerly NCCLS) recommended broth microdilution methodology [NCCLS, 2003] using defined media."}, "[2]": {"test_system": "Enterobacter aerogenes (WT)", "assay": "microbe, parasite or virus in culture", "settings": "Klebsiella aerogenes, Enterobacter aerogenes (WT)"}, "P. aeruginosa": {"test_system": "P. aeruginosa", "assay": "In vitro activity against P. aeruginosa clinical isolates", "settings": "for % susceptible: P. aeruginosa, 2,008 clinical isolates, GSK2251052 based on potential susceptible breakpoint of ≦4 μg/mL", "protocol": "GSK2251052 was tested for activity against P. aeruginosa, and its activity was compared to other antibiotics of known activity. The results are shown below in Tables 2a and 2b. Of 2,008 clinical isolates tested (from 2009-2010 subjects, of which 40% were from North America) greater than 90% were susceptible to GSK2251052 based on a potential susceptible breakpoint of ≦4 μg/mL."}, "Klebsiella spp. (KPC)": {"test_system": "Klebsiella spp. (KPC)", "assay": "microbe, parasite or virus in culture", "settings": "Klebsiella"}, "[3]": {"settings": "read-out: susceptibility category of MIC90"}, "[4]": {"settings": "Pseudomonas aeruginosa, P. aeruginosa clinical isolates"}}, "note": "Where two headings read alike, the source gives them in different places."}
{"smiles": "NC[C@H]1OB(O)c2c(OCCCO)cccc21", "note": "[GSK2251052, (S)-3-aminomethyl-7-(3-hydroxy-propoxy)-3h-benzo[c][1,2]oxaborol-1-ol]", "values": [{"measurement": "MIC90", "setting": "Klebsiella spp. (ESBL)", "result": 1, "unit": "µg/mL"}, {"measurement": "MIC90", "setting": "Klebsiella spp. (ESBL); [3]", "result": "< 4", "unit": "µg/mL"}, {"measurement": "MIC90", "setting": "S. marcescens (AmpC)", "result": 1, "unit": "µg/mL"}, {"measurement": "MIC90", "setting": "S. marcescens (AmpC); [3]", "result": "< 4", "unit": "µg/mL"}, {"measurement": "MIC", "setting": "[1]; 24 h, subject E. Coli 1, day 1, first line, no LeuRS change", "result": 0.5, "unit": "µg/mL"}, {"measurement": "MIC", "setting": "[1]; 24 h, subject E. Coli 1, day 1, second line, no LeuRS change", "result": 0.25, "unit": "µg/mL"}, {"measurement": "MIC", "setting": "[1]; 48 h", "result": 16, "unit": "µg/mL"}, {"measurement": "MIC", "setting": "[1]; 72 h", "result": 16, "unit": "µg/mL"}, {"measurement": "MIC", "setting": "[1]; 96 h", "result": 16, "unit": "µg/mL"}, {"measurement": "MIC90", "setting": "[2]; 199 isolates, read-out: MIC90", "result": 1, "unit": "µg/mL"}, {"measurement": "susceptibility category of MIC90", "setting": "[2]; GSK2251052 breakpoint, read-out: susceptibility category of MIC90", "result": "< 4", "unit": "µg/mL"}, {"measurement": "MIC Range", "setting": "P. aeruginosa; P. aeruginosa clinical isolates", "result": "0.06 to 64", "unit": "µg/mL"}, {"measurement": "% susceptible", "setting": "P. aeruginosa", "result": "greater than 90%"}, {"measurement": "% susceptible", "setting": "P. aeruginosa; listed as GSK2250152", "result": 92.8, "unit": "%"}, {"measurement": "MIC50", "setting": "P. aeruginosa; [4]", "result": 2, "unit": "µg/mL"}, {"measurement": "MIC90", "setting": "P. aeruginosa; [4]", "result": 4, "unit": "µg/mL"}, {"measurement": "MIC90", "setting": "Klebsiella spp. (KPC)", "result": 2, "unit": "µg/mL"}, {"measurement": "MIC90", "setting": "Klebsiella spp. (KPC); [3]", "result": "< 4", "unit": "µg/mL"}]}
